Source: PubChem BioAssay AID1963853 (Molecular Pharmacology Branch, DTP, NCI, 2024)

Test system: 266295-075-R-J1-PDC spheroid viability
Test: Anticancer human tumor 266295-075-R-J1-PDC patient-derived head and neck squamous carcinoma cell line growth inhibition [POLQ]
Conditions: spheroids with HUVEC and MSC; for IC50: curve of first compound; for viability, T/C: stronger effect = lower value
Method: Multicellular complex tumor spheroid response to Polymerase (POL) inhibitors (novobiocin, ART-558, RP6685) in combination with a variety of drugs and investigational agents in selected tumor cell lines
The POL inhibitors (novobiocin, ART-558, and RP6685) were evaluated both individually and in combination with standard of care and investigational anticancer small molecules within a complex spheroid model of solid tumors. . Complex spheroids include a stromal component modeled by human endothelial cells (HUVEC) and fibroblasts modeled by human mesenchymal stem cells (MSCs). The concentration ranges selected for each drug and investigational agent were based upon clinically achievable concentrations if the clinical Cmax of the agent was known.
Compounds. The drugs and investigational agents: novobiocin (NSC847541), ART-558 (NSC835418), RP-6685 (NSC848927), peposertib (NSC802822), ceralasertib (NSC780249), elimusertib (NSC800525), camonsertib (NSC841442), AZD-1390 (NSC803789), olaparib (NSC753686), talazoparib (NSC767125), rucaparib (NSC756644), sotorasib (NSC818433), MRTX-1133 (NSC836407), SN-38 (NSC673596), topotecan (NSC609699), epotoside (NSC141540), doxorubicin (NSC123127), gemcitabine (NSC613327), 5-fluorouracil (NSC19893), paclitaxel (NSC125973), vemurafenib (NSC761431), MSA-2 (NSC828583), SN-011 (NSC837082), adavosertib (NSC754352), prexasertib (NSC758257), carboplatin (NSC241240) and oxaliplatin (NSC266046), were obtained from the National Cancer Institute (NCI) Developmental Therapeutics Program Chemical Repository (21). The FDA-approved anticancer drug set is available from the Developmental Therapeutics Program at https://dtp.cancer.gov/organization/dscb/obtaining/. […] The stock solutions were prepared in dimethyl sulfoxide (DMSO, Sigma-Aldrich, St. Louis, MO, cat. D2650), except for the platinum compounds which were prepared in saline (Quality Biological, Gaithersburg, MD, cat. 114-055-101), at 800-fold the tested concentration and stored at -70 degrees C prior to their use. All drugs and investigational agents were tested over a range starting from a high concentration at or near the clinical Cmax and decreasing in half-log increments. If the clinical Cmax for an agent had not been determined, the highest concentration tested was 10 microM, except for SN-38, which was tested at a high concentration of 1 microM.
Cell Culture. All cells were maintained in an incubator at 37 degrees C and 5% CO2 with 95% humidity. The PDC lines were cultured according to standard operating procedures established by the NCI PDMR (https://pdmr.cancer.gov). Table 3 of the manuscript, lists the cell lines along with the number of the three cell types plated to form the mct-spheroids and media for tumor cell growth. After thawing, all PDC lines, except 997537-175-T-J1-PDC and 415267-285-R-J2-PDC, were cultured in Matrigel-coated flasks prepared with a working solution of 1X Ham's F-12 nutrient mix, without supplementation (Thermo Fisher Scientific, cat. 11765054), 100 U/mL penicillin-streptomycin (Thermo Fisher Scientific, cat. 15140122), and 2.5% Matrigel (Corning Inc., Corning, NY, cat. 354248) for the first three passages. The two PDC lines 997537-175-T-J1-PDC and 415267-285-R-J2-PDC were cultured on uncoated flasks. The 857933-349-R-J2-PDC line was cultured in 6C/Colon 1B media containing advanced DMEM/F-12 (Thermo Fisher Scientific, cat. 12634028), 10 mM HEPES (Thermo Fisher Scientific, cat. 15630080), 1X GlutaMAX supplement (Thermo Fisher Scientific, cat. 35050061), 0.1 mg/mL primocin (InvivoGen, San Diego, CA, cat. ant-pm-2), 10% defined fetal bovine serum, heat inactivated (HyClone Laboratories Inc., Logan, UT, cat. SH30070.03HI), 50% L-WRN conditioned media (ATCC, cat. CRL-3276), 1.25 mM N-Acetyl-L-cysteine (Sigma-Aldrich, cat. A9165), 10 mM nicotinamide (Sigma-Aldrich, cat. N0636), 1X B-27 supplement (Thermo Fisher Scientific, cat. 17504044), 1X N-2 supplement (Thermo Fisher Scientific, cat. […]
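Also: spheroids exposed to compounds for seven days before readout.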

## C#Cc1c(F)ccc2cc(O)cc(-c3ncc4c(N5CC6CCC(C5)N6)nc(OCC56CCCN5CC(F)C6)nc4c3F)c12 (configuration not stated) + COC1C(OC(N)=O)C(O)C(Oc2ccc3c(O)c(NC(=O)c4ccc(O)c(CC=C(C)C)c4)c(=O)oc3c2C)OC1(C)C
Second compound 0.0316 µM
  IC50: > 10 µM
Second compound 0.1 µM
  IC50: > 10 µM
Second compound 0.316 µM
  IC50: > 10 µM
Second compound 1 µM
  IC50: > 10 µM
Second compound 3.16 µM
  IC50: > 10 µM
Second compound 10 µM
  IC50: > 10 µM
Second compound 0.0316 µM, first compound 0.0316 µM
  viability, T/C: 97.4%
Second compound 0.0316 µM, first compound 0.1 µM
  viability, T/C: 79.1%
Second compound 0.0316 µM, first compound 0.316 µM
  viability, T/C: 69.6%
Second compound 0.0316 µM, first compound 1 µM
  viability, T/C: 65.3%
Second compound 0.0316 µM, first compound 3.16 µM
  viability, T/C: 60.8%
Second compound 0.0316 µM, first compound 10 µM
  viability, T/C: 58.2%
Second compound 0.1 µM, first compound 0.0316 µM
  viability, T/C: 94.9%
Second compound 0.1 µM, first compound 0.1 µM
  viability, T/C: 84.9%
Second compound 0.1 µM, first compound 0.316 µM
  viability, T/C: 74.9%
Second compound 0.1 µM, first compound 1 µM
  viability, T/C: 60.1%
Second compound 0.1 µM, first compound 3.16 µM
  viability, T/C: 71.6%
Second compound 0.1 µM, first compound 10 µM
  viability, T/C: 54.2%
Second compound 0.316 µM, first compound 0.0316 µM
  viability, T/C: 100%
Second compound 0.316 µM, first compound 0.1 µM
  viability, T/C: 88.5%
Second compound 0.316 µM, first compound 0.316 µM
  viability, T/C: 87.8%
Second compound 0.316 µM, first compound 1 µM
  viability, T/C: 68%
Second compound 0.316 µM, first compound 3.16 µM
  viability, T/C: 67.3%
Second compound 0.316 µM, first compound 10 µM
  viability, T/C: 60.3%
Second compound 1 µM, first compound 0.0316 µM
  viability, T/C: 91.3%
Second compound 1 µM, first compound 0.1 µM
  viability, T/C: 78.1%
Second compound 1 µM, first compound 0.316 µM
  viability, T/C: 80.1%
Second compound 1 µM, first compound 1 µM
  viability, T/C: 87%
Second compound 1 µM, first compound 3.16 µM
  viability, T/C: 65.2%
Second compound 1 µM, first compound 10 µM
  viability, T/C: 56.9%
Second compound 3.16 µM, first compound 0.0316 µM
  viability, T/C: 94.6%
Second compound 3.16 µM, first compound 0.1 µM
  viability, T/C: 77.8%
Second compound 3.16 µM, first compound 0.316 µM
  viability, T/C: 79.5%
Second compound 3.16 µM, first compound 1 µM
  viability, T/C: 67.7%
Second compound 3.16 µM, first compound 3.16 µM
  viability, T/C: 60.4%
Second compound 3.16 µM, first compound 10 µM
  viability, T/C: 54.3%
Second compound 10 µM, first compound 0.0316 µM
  viability, T/C: 96.9%
Second compound 10 µM, first compound 0.1 µM
  viability, T/C: 91.9%
Second compound 10 µM, first compound 0.316 µM
  viability, T/C: 79.1%
Second compound 10 µM, first compound 1 µM
  viability, T/C: 64%
Second compound 10 µM, first compound 3.16 µM
  viability, T/C: 70.2%
Second compound 10 µM, first compound 10 µM
  viability, T/C: 55.7%
